The source made the active and inactive calls. The calls are words filed in the database; no cut-off is given here.
What was measured:
C2C12 [1] = assay: Effect on r(CCUG)300 levels in mouse C2C12 cells at 10 uM by RT-qPCR method; assay type: functional, cell-based
C2C12 [2] = assay: Binding affinity to r(CCUG)300 RNA (unknown origin) in mouse C2C12 cells transfected with BIN1 assessed as rescue of BIN1 splicing defect at 10 uM after 72 hrs by PCR analysis; assay type: cell-based
C2C12 [3] = assay: Effect on BIN1 splicing patterns in mouse C2C12 cells at 1 to 20 uM by RT-qPCR method; assay type: ADME, cell-based; details: c2c12, 20 µM
[4] = Binding affinity to 5-biotin-r(CCUG)12 RNA (unknown origin) assessed as disruption of 5-biotin-r(CCUG)12/His6-tagged MBNL1 complex incubated for 15 mins by TR-FRET assay
[5] = Binding affinity to 5-biotin-r(CCUG)12 RNA (unknown origin) assessed as inhibition of r(CCUG)12/His6-tagged MBNL1 complex formation preincubated for 15 mins followed by addition of His6-tagged MBNL1 by TR-FRET assay
C2C12 [6] = assay: Effect on BIN1 splicing patterns in mouse C2C12 cells at 0.1 to 10 uM by RT-qPCR method; assay type: ADME, cell-based; details: c2c12, 10 µM
[7] = Binding affinity to r(CCUG)300 RNA (unknown origin) in mouse C2C12 cells transfected with BIN1 assessed as rescue of BIN1 splicing defect after 72 hrs by PCR analysis; assay type: cell-based
C2C12 [8] = assay: Binding affinity to r(CCUG)300 RNA (unknown origin) in mouse C2C12 cells transfected with BIN1 splicing mini gene assessed as rescue of BIN1 splicing defect at 100 nM after 72 hrs by PCR analysis; assay type: cell-based

IC50 [4] | IC50 [5] | Compound | Activity (C2C12 [1]) | Activity (C2C12 [2]) | Activity (C2C12 [6]) | also measured
– | – | C#CCCCC(=O)NC[C@H]1O[C@H](O[C@H]2[C@H](O)[C@@H](O[C@H]3O[C@H](CN=[N+]=[N-])[C@@H](O)[C@H](N)[C@H]3O)[C@H](N)C[C@@H]2N)[C@H](O)[C@@H](O)[C@@H]1O | inactive | – | – | –
– | – | C#CCCCC(=O)NC[C@@H]1O[C@@H](O[C@H]2[C@H](O)[C@@H](O[C@@H]3O[C@@H](CO)[C@H](O)[C@@H](N)[C@@H]3O)[C@H](N)C[C@@H]2N)[C@@H](O)[C@H](O)[C@H]1O | inactive | 15% | – | Activity (C2C12 [3]): Non-toxic
470 nM | 300 nM | Nc1ccn([C@@H]2C[C@@H](OP(=O)(O)OC[C@H]3O[C@@H](n4cnc5c(N)ncnc54)C[C@@H]3OP(=O)(O)OC[C@H]3O[C@@H](n4cnc5c(=O)[nH]c(N)nc54)C[C@@H]3OP(=O)(O)OC[C@@H]3O[C@H](n4cnc5c(=O)[nH]c(N)nc54)C[C@H]3OP(=O)(O)OC[C@@H]3O[C@H](n4ccc(N)nc4=O)C[C@H]3OP(=O)(O)OC[C@H]3O[C@@H](n4cnc5c(N)ncnc54)C[C@@H]3OP(=O)(O)OC[C@H]3O[C@@H](n4cnc5c(=O)[nH]c(N)nc54)C[C@@H]3OP(=O)(O)OC[C@H]3O[C@@H](n4cnc5c(=O)[nH]c(N)nc54)C[C@@H]3O)[C@H](COP(=O)(O)O[C@H]3C[C@H](n4cnc5c(=O)[nH]c(N)nc54)O[C@@H]3COP(=O)(O)O[C@@H]3C[C@@H](n4cnc5c(=O)[nH]c(N)nc54)O[C@H]3COP(=O)(O)O[C@@H]3C[C@@H](n4cnc5c(N)ncnc54)O[C@H]3COP(=O)(O)O[C@H]3C[C@H](n4ccc(N)nc4=O)O[C@@H]3COP(=O)(O)O)O2)c(=O)n1 | – | – | – | –
830 nM | 700 nM | Nc1ccn([C@@H]2C[C@@H](OP(=O)(O)OC[C@H]3O[C@@H](n4cnc5c(N)ncnc54)C[C@@H]3OP(=O)(O)OC[C@H]3O[C@@H](n4cnc5c(=O)[nH]c(N)nc54)C[C@@H]3OP(=O)(O)OC[C@H]3O[C@@H](n4cnc5c(=O)[nH]c(N)nc54)C[C@@H]3OP(=O)(O)OC[C@@H]3O[C@H](n4ccc(N)nc4=O)C[C@H]3OP(=O)(O)OC[C@@H]3O[C@H](n4cnc5c(N)ncnc54)C[C@H]3OP(=O)(O)OC[C@@H]3O[C@H](n4cnc5c(=O)[nH]c(N)nc54)C[C@H]3OP(=O)(O)OC[C@H]3O[C@@H](n4cnc5c(=O)[nH]c(N)nc54)C[C@@H]3O)[C@H](COP(=O)(O)O)O2)c(=O)n1 | – | – | – | –
– | – | CCCN(CC(=O)N(CCC)CC(=O)N(CCC)CC(=O)N(CCC)CC(=O)N(CCCn1cc(CCCC(=O)NC[C@H]2O[C@H](O[C@@H]3[C@@H](O)[C@H](O[C@@H]4O[C@@H](CO)[C@H](O)[C@@H](N)[C@@H]4O)[C@@H](N)C[C@H]3N)[C@H](O)[C@@H](O)[C@@H]2O)nn1)CC(N)=O)C(=O)CNCCCn1cc(CCCC(=O)NC[C@@H]2O[C@@H](O[C@@H]3[C@@H](O)[C@H](O[C@@H]4O[C@@H](CO)[C@H](O)[C@@H](N)[C@@H]4O)[C@@H](N)C[C@H]3N)[C@@H](O)[C@H](O)[C@H]2O)nn1 | inactive | 60% | Non-toxic | –
– | – | C#CNC(=O)CC(=O)NC[C@H]1O[C@H](O[C@@H]2[C@@H](O)[C@H](O[C@@H]3O[C@@H](CN=[N+]=[N-])[C@H](O)[C@@H](N)[C@@H]3O)[C@@H](N)C[C@H]2N)[C@H](O)[C@@H](O)[C@@H]1O (stereo in doubt) | – | – | Non-toxic | IC50 [7]: 80 nM; Activity (C2C12 [8]): 50%

From ChEMBL document CHEMBL3804791, “Comparison of small molecules and oligonucleotides that target a toxic, non-coding RNA” (Bioorg Med Chem Lett, 2016)
